A short description of data set [1]: In vivo antitumor assay, Panc03(sc). More on the design: species or system mice. To be noted: mouse, in vivo. The text has this: Mice: Inbred: C3H/He and NCR-nu; and Hybrids: B6D2F1 (C57BL/6 females×DBA/2 males, CD2F1 (Balb/c females×DBS/2 males) and B6C3fl (C57BL/6×C3H) were bred at Wayne State University from strains obtained from the Frederick Cancer Research Facility, Frederick, Maryland or purchased from commercial suppliers.
Tumors: Murine Tumor: P388 and an adriamycin-resistant (ADR) subline P388/ADR leukemia and the following transplantable solid tumors of mice were used for in vivo testing: B16 melanoma (B16), pancreatic ductal adenocarcinoma No. 03 (Pane 03), colon adenocarcinoma No. 38 (colo 38), lung carcinoma No. 12 (LC 12), mammary ductal adenocarcinoma No. 16/C (Mam16C) and an adriamycin-resistant subline Mam16C/ADR. Human tumor: A single human tumor, mammary carcinoma MX-1 was used for in vivo testing. All tumors are in the Developmental Therapeutics Program frozen tumor respository, maintained by the Biological Testing Branch, Frederick Maryland. Each has a detailed description, code identification number, and list of references at the National Tumor Repository. Murine tumors were maintained in the mouse strain of origin and were transplanted in the appropriate F1 hydrid (or the strain of origin) for therapy trials. Human mammary carcinoma MX-1 (MX1) was maintained as a subcutaneous implant in either athymic Swiss (Cr: NIH(S)-nu) or athymic random bred (NCR-nu) mice and transplanted in NCR-nu for therapy trials.
Chemotherapy: For pancreatic ductal adenocarcinoma No. 3, colon adenocarcinoma No. 38 (colo 38), lung carcinoma No. 12 LC 12) and both adriamycin-sensitive (RP) and-resistant (ADR) mammary ductal adenocarcinoma No. 16 (Mam16) tumors, bilateral tumor implants were used to help ensure a more uniform tumor burden per mouse (thus reducing the requirement for greater numbers of mice per group). The animals necessary to begin an experiment were pooled, implanted bilaterally s.c. on day zero with 30-60 mg tumor fragments using a 12-gauge trocar, and again pooled before randomization to the various treatment and control groups. Chemotherapy was started within three days after tumor implantation while the number of cells per mouse was relatively small (1×10^7 -1×10^8 cells).
Quantitative end points used to assess antitumor activity included % Increased Life Span (% ILS), Tumor Cell Kill (Log10 kill), and Tumor Growth Inhibition (T/C). Long Term Survivors (45 or 60 day) were excluded from calculations of %ILS and Tumor Cell Kill.
The log10 cell kill was calculated from the following formula: [formula] where T-C is the tumor difference in the median day of death between the treated (T) and the control (C) groups and Td is the tumor doubling time (in days), the latter estimated from the best fit straight line from a log-linear growth plot of the control-group tumors in exponential growth. The conversion of the T-C values to log10 cell kill is possible because the Td for tumors regrowing post-treatment approximated the Td values of the tumors in untreated control mice.
Tumors were measured with a caliper once or twice weekly (as needed) until either tumors exceeded 1600 mg or cure was assured. Tumor weights were estimated from two-dimensional measurements: Tumor Weight (mg)=(a×b^2) / 2, where a and b are the tumor length and width (ram) respectively. Measurements were carried out simultaneously in both treatment and control groups. When the control group tumors reached approximately 750-1500 mg in size (median of group), the median tumor weight of each group was determined (including zeros). The T/C value in percent is an indication of antitumor effectiveness. The % T/C was calculated from the following formula for solid murine tumor models: [formula] where T and C are median tumor weights of the treatment and control groups, respectively. A T/C equal to or less than 42% is considered significant antitumor activity. […]

For data set [2], the target named is T1, human topoisomerase II (Homo sapiens, UniProt P11388).
T1 construct: Topo II was purified from late log phase suspension cultures of HeLa WIS; endogenous in cells; host or cells: HeLa WIS
In words: Mammalian topoisomerase II inhibition assay (topo II covalently attached to DNA, relative to mAMSA). In kind it is biochemical. Conditions: read-out: topo II inh. EC50. The method, boiled down: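 HeLa-purified human topo II was reacted with compound for 20 min at 37 °C, and covalent topo II-DNA complexes were recovered by SDS/KCl precipitation and scintillation counting, in duplicate. Compounds were screened at 2, 20 and 200 μg/ml, then titrated. Complex formation is scaled to the maximum at 10 μg/ml mAMSA.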

The mark [3] stands for this setting: footnote c: bell-shaped dose response curve noted, 50% of maximal effect of mAMSA.
The mark [4] stands for this setting: conc. achieving 50% of maximal effect of mAMSA, topo II from HeLa cells.

The structures appear in SMILES notation. pEC50: −log10 of the molar value. Like-named read-outs stand apart in the source and are kept apart here.

T1 sequence (P11388 whole entry): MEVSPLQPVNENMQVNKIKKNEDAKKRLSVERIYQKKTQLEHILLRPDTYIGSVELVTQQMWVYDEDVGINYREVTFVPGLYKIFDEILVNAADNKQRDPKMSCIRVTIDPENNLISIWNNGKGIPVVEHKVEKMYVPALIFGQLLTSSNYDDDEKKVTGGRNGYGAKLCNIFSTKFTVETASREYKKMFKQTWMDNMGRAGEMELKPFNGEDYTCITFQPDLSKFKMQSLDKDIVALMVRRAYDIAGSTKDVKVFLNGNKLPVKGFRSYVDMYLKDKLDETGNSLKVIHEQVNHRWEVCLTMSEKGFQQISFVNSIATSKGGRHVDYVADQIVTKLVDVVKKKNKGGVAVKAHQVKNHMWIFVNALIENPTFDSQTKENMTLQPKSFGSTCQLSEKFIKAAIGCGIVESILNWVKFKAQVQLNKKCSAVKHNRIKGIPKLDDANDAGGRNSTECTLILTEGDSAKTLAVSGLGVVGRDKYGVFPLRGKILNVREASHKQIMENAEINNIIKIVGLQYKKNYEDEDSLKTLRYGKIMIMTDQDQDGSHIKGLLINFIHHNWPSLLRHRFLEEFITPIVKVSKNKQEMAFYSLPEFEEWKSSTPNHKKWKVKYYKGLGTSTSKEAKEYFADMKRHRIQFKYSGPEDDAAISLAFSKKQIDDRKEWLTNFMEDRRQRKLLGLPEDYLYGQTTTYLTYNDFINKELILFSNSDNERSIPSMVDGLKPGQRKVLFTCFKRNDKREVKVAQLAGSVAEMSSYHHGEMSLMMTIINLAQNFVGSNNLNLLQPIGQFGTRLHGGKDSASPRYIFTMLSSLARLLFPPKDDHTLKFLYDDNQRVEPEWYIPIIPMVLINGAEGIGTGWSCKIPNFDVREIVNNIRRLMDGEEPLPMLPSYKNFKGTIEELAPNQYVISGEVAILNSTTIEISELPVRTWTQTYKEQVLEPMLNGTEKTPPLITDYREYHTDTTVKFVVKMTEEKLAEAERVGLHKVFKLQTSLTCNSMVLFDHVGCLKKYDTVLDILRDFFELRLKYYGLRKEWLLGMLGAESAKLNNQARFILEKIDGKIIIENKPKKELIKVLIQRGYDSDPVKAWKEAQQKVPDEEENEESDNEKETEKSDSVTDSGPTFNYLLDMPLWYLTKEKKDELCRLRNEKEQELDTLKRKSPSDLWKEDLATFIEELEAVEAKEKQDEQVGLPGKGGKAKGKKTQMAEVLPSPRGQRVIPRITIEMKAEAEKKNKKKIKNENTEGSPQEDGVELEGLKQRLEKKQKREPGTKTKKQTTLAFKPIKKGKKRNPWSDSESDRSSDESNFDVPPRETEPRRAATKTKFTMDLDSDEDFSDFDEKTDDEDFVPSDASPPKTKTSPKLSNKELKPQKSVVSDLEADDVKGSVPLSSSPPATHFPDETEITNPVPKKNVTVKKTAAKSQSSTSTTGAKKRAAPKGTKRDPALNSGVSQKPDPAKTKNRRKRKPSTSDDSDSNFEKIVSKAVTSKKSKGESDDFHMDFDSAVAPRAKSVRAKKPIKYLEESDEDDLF

The pEC50 is the EC50 on a negative log10 scale, so that one unit is a factor of ten. Regarding `Cc1cc(-c2c(F)cc3c4nn(CCN(C)C)c(=O)c-4cn(C4CC4)c3c2F)cc(C)n1.O=C(O)/C=C/C(=O)O` [Example 1, 5-Cyclopropyl-6,8-difluoro-2,5-dihydro-2-[2-(dimethylamino)-ethyl]-7-(2,6-dimethyl-4-pyridinyl)-3H-pyrazolo[4,3-c]quinolin-3-one (E)-2-butendioate (1:1)], the MTD is 52 mg/kg in data set [1] (iv, Panc03(sc), drug iv, qd 3,4, exp 1005A, read-out: MTD); 34 mg/kg in data set [1] (iv, Panc03(sc), drug iv, qd 3,6,9, exp 1146, read-out: MTD); 35 mg/kg in data set [1] (iv, Panc03(sc), drug iv, qd 3, exp 895A, read-out: MTD); 45 mg/kg in data set [1] (iv, Panc03(sc), drug iv, qd 3-9, exp 910, read-out: MTD). For the same compound, the pEC50 in data set [2] (setting [3]) was 5.59.

Turning to `Cc1cc(-c2c(F)cc3c4nn(CCCN(C)C)c(=O)c-4cn(C4CC4)c3c2F)cc(C)n1` [Example 14], the MTD in data set [1] (iv, MTD) came out at 107 mg/kg. The pEC50 in data set [2] (setting [4]) is 5.77.

For `Cc1cc(-c2c(F)cc3c4nn(CCNCCO)c(=O)c-4cn(C4CC4)c3c2F)cc(C)n1` [Example 17], the MTD in data set [1] (MTD) was 1410 mg/kg. Moreover, the pEC50 in data set [2] (setting [3]) is 5.48.

Regarding `Cc1cc(-c2c(F)cc3c4nn([C@H]5CC[C@@H](N(C)C)CC5)c(=O)c-4cn(C4CC4)c3c2F)cc(C)n1` [Example 51a], the MTD in data set [1] (iv, MTD) was 63 mg/kg. Besides, the pEC50 in data set [2] (setting [4]) was 5.77.

Regarding `Cc1cc(-c2c(F)cc3c4nn([C@H]5CC[C@H](N(C)C)CC5)c(=O)c-4cn(C4CC4)c3c2F)cc(C)n1` [Example 51b], in data set [1] (MTD), the MTD was greater than 390 mg/kg. Also, the pEC50 in data set [2] (setting [4]) is 5.36.

In data set [1] (iv, MTD), `Cc1cc(-c2c(F)cc3c4nn([C@H]5CC[C@@H](N)CC5)c(=O)c-4cn(C4CC4)c3c2F)cc(C)n1` [Example 56a, 2-(Cis-4-Aminocyclohexyl)-5-cyclopropyl-6,8-difluoro-2,5-dihydro-7-(2,6-dimethyl-4-pyridinyl)-3H-pyrazolo-[4,3-c]quinolin-3-one] returned an MTD of 110 mg/kg. Besides, in data set [2] (setting [4]), the pEC50 was 6.30.

The record behind these values is patent publication US5334595A, “Pyrazoloquinolones as anticancer agents” (priority 1992, dated 1994).
